# Entries after “also recorded” stand apart in the source; their conditions may differ.
# B1: AlkB-Fe^++ (protein, UniProt P05050 1-216, looked up)
# Alpha-ketoglutarate-dependent …: MLDLFADAEPWQEPLAAGAVILRRFAFNAAEQLIRDINDVASQSPFRQMVTPGGYTMSVAMTNCGHLGWTTHRQGYLYSPIDPQTNKPWPAMPQSFHNLCQRAATAAGYPDFQPDACLINRYAPGAKLSLHQDKDEPDLRAPIVSVSLGLPAIFQFGGLKRNDPLKRLLLEHGDVVVWGGESRLFYHGIQPLKAGFHPLTIDCRYNLTFRQAGKKE
# modifications: Fe2+ bound
# What was measured:
# DHFRtag:MTX = target: T1, DHFRtag:MTX (Escherichia coli, UniProt P0ABQ4, C152S/C85A); experiment: Ligand binding to DHFRtag:MTX complex confined inside ClyA-AS nanopore, single-channel recording; set-up: species or system E. coli; conditions: for L2B ΔIRES %: from L2
# T1 construct: Met-Ala-Ser-Ala (N); made in house; host or cells: E. cloni EXPRESS BL21(DE3) E. coli
# T1 sequence (P0ABQ4 1-159 C85A/C152S): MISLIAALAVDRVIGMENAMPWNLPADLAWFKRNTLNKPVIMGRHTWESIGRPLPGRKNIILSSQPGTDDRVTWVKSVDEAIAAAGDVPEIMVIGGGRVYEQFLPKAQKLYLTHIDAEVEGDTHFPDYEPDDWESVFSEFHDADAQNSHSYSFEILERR
# Protocol: (§1) The applied potential refers to the potential of the trans electrode. ClyA-AS nanopores were inserted into lipid bilayers from the cis compartment, which was connected to the ground electrode. The two compartments were separated by a 25 μm thick polytetrafluoroethylene film (Goodfellow Cambridge Limited) containing an orifice of ˜100 μm in diameter. The aperture was pretreated with ˜5 μl of 10% hexadecane in pentane and a bilayer was formed by the addition of ˜10 μL of 1,2-diphytanoyl-sn-glycero-3-phosphocholine (DPhPC) in pentane (10 mg/mL) to both electrophysiology chambers. Typically, the addition of 0.01-0.1 ng of oligomeric ClyA-AS to the cis compartment (0.5 mL) was sufficient to obtain a single channel. […] Electrical recordings were carried out in 150 mM NaCl, 15 mM Tris.HCl pH 8.0 (AlkB experiments) or 150 mM NaCl, 15 mM Tris.HCl pH 7.5 (DHFR experiments). The temperature of the recording chamber was maintained at 28° C. by water circulating through a metal case in direct contact with the bottom and sides of the chamber.
# (§2) Electrical signals from planar bilayer recordings were amplified using an Axopatch 200B patch clamp amplifier (Axon Instruments) and digitized with a Digidata 1440 A/D converter (Axon Instruments). Data were recorded by using the Clampex 10.4 software (Molecular Devices) and the subsequent analysis was carried out with the Clampfit software (Molecular Devices). Electrical recordings were performed in 150 mM NaCl, 15 mM Tris.HCl pH 8.0 (AlkB) or pH 7.5 (DHFR) by applying a 2 kHz low-pass Bessel filter and a 10 kHz sampling rate. For further analysis traces were filtered digitally with a Bessel (8-pole) low-pass filter with a 50 Hz cut-off. Residual current values (IRES%) were calculated from blocked pore current values (IB) and open pore current values (IO) as IRES %=100*IB/IO. IB and IO were determined from Gaussian fits to all point current histograms (0.05 pA bin size) for at least 15 individual protein blockades. ΔIRES % values were calculated from IRES % using propagation of errors.
# (§3) Current transitions from level 1 were analyzed with the “single-channel search” function in Clampfit. The detection threshold to collect the ligand-induced events for AlkB was set to 4 pA and events shorter than 10 ms were ignored. […] The resulting event dwell times (toff) and the time between events (ton) were binned together as cumulative distributions and fitted to a single exponential to retrieve the ligand-induced lifetimes (τoff) and the ligand-induced event frequencies (f=1/τon). The process of event collection was monitored manually. For AlkB, final values of τon and τoff were based on average values derived from at least 3 single channel experiments at each concentration. Each experiment analysed more than 8 AlkB blockades. At the low ligand concentrations (0.2 mM) about 100 ligand-binding events were measured. Otherwise more than 150 events were collected. […] Subsequently, the ton values were binned together as cumulative distributions and fitted to a single exponential fit to retrieve characteristic τon values. The values for koff represented in FIG. 2b and FIG. 4b were determined by taking the average±standard deviations of 1/toff of at least 3 single channel experiments. The values of the association rate constants (kon) were determined from the slope of the linear regression curves calculated from the dependency of the event frequencies (f=1/τon) on the ligand concentration (OriginLab, FIGS. 2b and 4b). Graphs were made with Origin (OriginLab Corporation) or Clampfit software (Molecular Devices).
# SBD1 = SBD1 (Lactococcus lactis, UniProt Q9CES5); experiment: Asparagine binding to SBD1 inside type I ClyA-AS nanopore
# Protocol: The interaction of SBD1 with asparagine was sampled using type I ClyA-AS nanopores. ClyA-AS (C87A/L99Q/E103G/F166Y/I203V/C285S/K294R/H307Y). In 150 mM NaCl and 15 mM Tris-HCl (pH 7.5), the addition of 74 nM of SBD1 to the cis compartment of Type I ClyA-AS induced transient current blockades at negative applied potentials (trans). […] Every 3.5±0.1 s^−1 (mean±S.E., n=212) the current switched to Level II (Ires %=66.8±0.4%, N=5) with a lifetime of 109±1 ms (mean±S.E., n=340). The protein blockades released spontaneously after 4.2±1.8 s (mean±S.E., n=291).
# The dissociation constant was determined by titrating the substrate and plotting the relative closed population (CL/(O+CL)), determined from the area of the all point current histogram, versus the concentration. […] The closing and opening rate constants were determined from the inverse of the open and closed state lifetimes respectively and were plotted versus the asparagine concentration. The closing rate was linearly dependent on the substrate concentration and the slope of the linear fit gave the kclosing=1.2×10^7 s^−1 M^−1.
# DHFR = target: T2, DHFR (Escherichia coli, UniProt P0ABQ4, C152S/C85A); experiment: Ligand effects on DHFR (untagged construct) blockades of ClyA-AS nanopore; type: binding, E. coli; conditions: 20 μM NADPH cis after 400 nM MTX, −90 mV
# T2 construct: Met-Ala-Ser-Ala (N); made in house; host or cells: E. cloni EXPRESS BL21(DE3) E. coli
# T2 sequence (P0ABQ4 1-159 C85A/C152S): T1 sequence (P0ABQ4 1-159 C85A/C152S)
# [1] = target: T3, AlkB-Fe^++ (E. coli AlkB demethylase) (Escherichia coli, UniProt P05050); experiment: Ligand binding to AlkB-Fe++ confined inside ClyA-AS nanopore, single-channel ionic current recording
# T3 construct: made in house; host or cells: E. cloni EXPRESS BL21(DE3) E. coli
# T3 sequence (P05050 with tags, fused parts or gaps): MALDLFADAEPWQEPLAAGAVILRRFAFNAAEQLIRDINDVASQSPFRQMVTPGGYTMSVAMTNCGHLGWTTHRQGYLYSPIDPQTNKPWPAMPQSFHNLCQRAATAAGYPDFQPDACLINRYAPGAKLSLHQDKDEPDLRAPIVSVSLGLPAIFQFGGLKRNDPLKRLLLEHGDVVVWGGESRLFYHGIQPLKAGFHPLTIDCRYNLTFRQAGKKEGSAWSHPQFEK
# Protocol: as §1, §2, §3
# 9, 872-877; Bleijlevens, B. et al. (2012) Biochem. 2012, 51, 3334-3341].
# Type I ClyA-AS nanopore = experiment: Current blockades from capture of protein adaptors by Type I ClyA-AS nanopore; set-up: species or system S. Typhi; conditions: ~4 nM cis, −60 mV
# Protocol: The applied potential refers to the potential of the trans electrode. ClyA-AS nanopores were inserted into lipid bilayers from the cis compartment, which was connected to the ground electrode. The two compartments were separated by a 25 μm thick polytetrafluoroethylene film (Goodfellow Cambridge Limited) containing an orifice of ˜100 μm in diameter. The aperture was pretreated with ˜5 μl of 10% hexadecane in pentane and a bilayer was formed by the addition of ˜10 μL of 1,2-diphytanoyl-sn-glycero-3-phosphocholine (DPhPC) in pentane (10 mg/mL) to both electrophysiology chambers. […]
# as §2, with “Electrical recordings were performed in 150 mM NaCl, 15 mM Tris.HCl pH 8.0 (AlkB) or pH 7.5 (DHFR) by applying a 2 kHz low-pass Bessel filter and a 10 kHz sampling rate. For further analysis traces were filtered digitally with a Bessel (8-pole) low-pass filter with a 50 Hz cut-off.” left out
# [2] = −90 mV, pH 7.5, 28° C., ligand trans
molecule,measurement,setting,value
NC(=O)c1ccc[n+]([C@@H]2O[C@H](COP(=O)([O-])OP(=O)(O)OC[C@H]3O[C@@H](n4cnc5c(N)ncnc54)[C@H](OP(=O)(O)O)[C@@H]3O)[C@@H](O)[C@H]2O)c1 [NADP+],DHFRtag:MTX blockades not responding to the ligand,DHFRtag:MTX; NADP+ added in trans,Approximately 45%
same,τM:N+ (dwell of NADP+ events),"DHFRtag:MTX; −90 mV, NADP+ trans",102 ± 11 ms
same,koff −90 mV,"DHFRtag:MTX; −90 mV, pH 7.5, 28° C.",10 ± 1 s⁻¹
same,kon −90 mV,"DHFRtag:MTX; −90 mV, pH 7.5, 28° C.",2.1 ± 0.3 × 10^6 s^−1 M^−1
same,L2B ΔIRES %,DHFRtag:MTX; [2],+4.7 ± 0.9%
NC(=O)C[C@H](N)C(=O)O [asparagine],Kd,SBD1,470 ± 30 nM
same,kon,"SBD1; pH 7.5, read-out: kclosing",1.2e+07 M⁻¹ s⁻¹
same,koff,"SBD1; pH 7.5, read-out: kopening",9.4 s⁻¹
NC(=O)C1=CN([C@@H]2O[C@H](COP(=O)(O)OP(=O)(O)OC[C@H]3O[C@@H](n4cnc5c(N)ncnc54)[C@H](OP(=O)(O)O)[C@@H]3O)[C@@H](O)[C@H]2O)C=CC1 [NADPH],enhancement of residual ionic current on NADPH binding,"DHFRtag:MTX; DHFR10+/4+/tag:MTX complexes, −90 mV",~4 pA
same,"DHFRtag:MTX blockades with ""long"" NADPH events",DHFRtag:MTX; NADPH trans,~55%
same,"DHFRtag:MTX blockades with ""short"" NADPH events",DHFRtag:MTX; NADPH trans,Approximately 45%
same,"kon, ""long"" NADPH events",DHFRtag:MTX; −90 mV,4.8e+06 ± 1.2e+06 M⁻¹ s⁻¹
same,"kon, ""short"" NADPH events",DHFRtag:MTX; −90 mV,5.8e+06 ± 1.2e+06 M⁻¹ s⁻¹
same,"ΔIRES %, ""long"" NADPH events",DHFRtag:MTX; −90 mV,2.7±0.7%
same,"ΔIRES %, ""short"" NADPH events",DHFRtag:MTX; −90 mV,2.2±0.9%
same,"lifetime of ""long"" NADPH binding events","DHFRtag:MTX; −90 mV, NADPH trans",> 3 s
same,"lifetime of ""short"" NADPH binding events","DHFRtag:MTX; −90 mV, NADPH trans",38.5 ± 0.8 ms
same,kon −90 mV,"DHFRtag:MTX; −90 mV, pH 7.5, 28° C.",4.8 ± 1.2 × 10^6 s^−1 M^−1
same,L2B ΔIRES % (first NADPH column as printed),DHFRtag:MTX; [2],+2.7 ± 0.7%
same,L1B ΔIRES %,"DHFRtag:MTX; −90 mV, pH 7.5, 28° C., ligand trans, from L1",+2.7±0.7%
same,L2B ΔIRES %,DHFRtag:MTX; [2],+5.4 ± 1.0%
same,effect of NADPH on DHFR blockades in presence of MTX,DHFR,abolished; also recorded: nearly total elimination of the DHFR blockades
B1,AlkB-Fe++ blockades not showing ligand-induced transitions,[1],About 30%
same,time trapped inside the nanopore,Type I ClyA-AS nanopore,several minutes

# From patent US11169138B2, “Nanopores with internal protein adaptors” (priority 2015, dated 2021)
